{"source": "patent US20240315242A1", "about": "“Antibacterial Compound” (LG Chem, Ltd., priority 2021, published 2024)"}
{"test_system": "E. coli (ATCC 25922)", "assay": "Evaluation of antibacterial property against E. coli (absorbance at 600 nm)", "format": "cell-based, Escherichia coli", "conditions": "injection amount of compound 0.01 g in 25 mL nutrient broth with E. coli ATCC 25922 at 3000 CFU/mL; 16 hours at 35° C.; absorbance at 600 nm vs pure culture medium", "method": "[formula] • in the equation, • As(Asample) represents absorbance of the culture medium containing the bacteriostatic substance at a wavelength of 600 nm, and • A0(Areference) represents absorbance of the pure culture medium without the bacteriostatic substance at a wavelength of 600 nm.\n(1) Evaluation of Antibacterial Property Against E. coli\n25 mL of a nutrient broth culture medium inoculated with E. coli (ATCC 25922) at 3000 CFU/mL was transferred to a 50 ml conical tube, and then the antibacterial compounds (bacteriostatic substances) prepared in Preparation Examples and Comparative Preparation Examples were injected in each amount described in Table 2 below, followed by sufficiently mixing. Thereafter, incubation was performed for 16 hours in a shaking incubator (Visiontech, VS-37SIF) maintained at 35° C.\nThe incubated solution was diluted to ⅕ using 1×PBS buffer solution, and absorbance at the wavelength of 600 nm was measured for the diluted solution using a UV-Vis Spectrophotometer (K Lab, Optizen POP). In addition, E. coli (ATCC 25922) was cultured in a pure culture medium without the antibacterial compound for 16 hours in a shaking incubator (VISION TECH, VS-37SIF) maintained at 35° C., which was prepared as a control, and absorbance at the wavelength of 600 nm was measured in the same manner as above.\nThen, antibacterial rates (%) of E. coli (ATCC 25922) were calculated according to the following Equation 1, and the results are shown in Table 2 below.\n[formula] • in the equation, • As(Asample) represents absorbance of the culture medium containing the bacteriostatic substance at a wavelength of 600 nm, and • A0(Areference) represents absorbance of the E. coli pure culture medium without the bacteriostatic substance at a wavelength of 600 nm.", "units": {"Antibacterial rate (%)": "%"}}
{"compound": "C=C(C)C(=O)OCC[N+](C)(C)CCCCCCCC", "note": "[Compound B, reference compound]", "Antibacterial rate (%)": 69.2}
{"compound": "C=C(C)C(=O)OCC[N+](C)(C)CCCCCCCCCC", "note": "[Compound 1]", "Antibacterial rate (%)": 95.3}
{"compound": "C=CC(=O)OCC[N+](C)(C)CCCCCCCC", "note": "[Compound 6]", "Antibacterial rate (%)": 70.6}
{"compound": "C=C(C)C(=O)OCC[N+](C)(C)CCCCCCCCCCCC", "note": "[Compound 2]", "Antibacterial rate (%)": 98.1}
{"compound": "C=CC(=O)OCC[N+](C)(C)CCCCCCCCCCCC", "note": "[Compound 3]", "Antibacterial rate (%)": 97.3}
{"compound": "C=CC(=O)OCC[N+](C)(C)CCCCCCCCCC", "note": "[Compound 5]", "Antibacterial rate (%)": 95.8}
{"compound": "C=CC(=O)OCC[N+](C)(C)CCCCCCCC", "note": "[Compound E, reference compound]", "Antibacterial rate (%)": 62.3}
